In the NIST ThermoML archive (doi:10.1021/acs.jced.7b00106):

Conditions: Hot wire method

FC(F)(F)/C=C/Cl [(E)-1-chloro-3,3,3-trifluoroprop-1-ene]
Conditions | thermal conductivity [W/m/K]
422.34 K, 6615 kPa, Liquid | 0.05507
422.35 K, 1562 kPa, Fluid (supercritical or subcritical phases) | 0.02132
422.37 K, 5710 kPa, Liquid | 0.054
422.38 K, 5711 kPa, Liquid | 0.05406
422.4 K, 4942 kPa, Liquid | 0.05308
422.42 K, 802 kPa, Fluid (supercritical or subcritical phases) | 0.02084
422.42 K, 1401 kPa, Fluid (supercritical or subcritical phases) | 0.0211
422.42 K, 4947 kPa, Liquid | 0.05316
422.43 K, 1403 kPa, Fluid (supercritical or subcritical phases) | 0.02113
422.44 K, 4300 kPa, Liquid | 0.05228
422.44 K, 4307 kPa, Liquid | 0.05231
422.45 K, 3760 kPa, Liquid | 0.05158
422.45 K, 3761 kPa, Liquid | 0.05162
422.48 K, 2616 kPa, Liquid | 0.05022
422.48 K, 2911 kPa, Liquid | 0.05073
422.48 K, 3308 kPa, Liquid | 0.05108
422.48 K, 3310 kPa, Liquid | 0.05105
422.49 K, 1222 kPa, Fluid (supercritical or subcritical phases) | 0.02095
422.49 K, 2914 kPa, Liquid | 0.05068
422.5 K, 1220 kPa, Fluid (supercritical or subcritical phases) | 0.02096
422.52 K, 28114 kPa, Liquid | 0.07065
422.54 K, 8781 kPa, Liquid | 0.05725
422.54 K, 28086 kPa, Liquid | 0.07055
422.55 K, 7612 kPa, Liquid | 0.0561
422.55 K, 8782 kPa, Liquid | 0.05725
422.56 K, 28121 kPa, Liquid | 0.0704
422.57 K, 1031 kPa, Fluid (supercritical or subcritical phases) | 0.02086
422.57 K, 1032 kPa, Fluid (supercritical or subcritical phases) | 0.02088
422.57 K, 6610 kPa, Liquid | 0.0551
422.58 K, 6615 kPa, Liquid | 0.05511
422.58 K, 28093 kPa, Liquid | 0.07032
422.61 K, 5714 kPa, Liquid | 0.05406
422.62 K, 5709 kPa, Liquid | 0.05406
422.66 K, 4943 kPa, Liquid | 0.05316
422.66 K, 4946 kPa, Liquid | 0.05333
422.67 K, 800 kPa, Fluid (supercritical or subcritical phases) | 0.02086
422.69 K, 11667 kPa, Liquid | 0.05975
422.7 K, 4304 kPa, Liquid | 0.05243
422.7 K, 4305 kPa, Liquid | 0.05239
422.71 K, 3758 kPa, Liquid | 0.05174
422.71 K, 3761 kPa, Liquid | 0.05177
422.72 K, 20061 kPa, Liquid | 0.0657
422.73 K, 3307 kPa, Liquid | 0.0512
422.73 K, 3310 kPa, Liquid | 0.05125
422.74 K, 10145 kPa, Liquid | 0.0585
422.78 K, 17484 kPa, Liquid | 0.06408
422.79 K, 8779 kPa, Liquid | 0.05724
422.79 K, 8783 kPa, Liquid | 0.05727
422.79 K, 17485 kPa, Liquid | 0.06404
422.79 K, 25690 kPa, Liquid | 0.06898
422.8 K, 7613 kPa, Liquid | 0.05618
422.8 K, 7618 kPa, Liquid | 0.05616
422.8 K, 25708 kPa, Liquid | 0.06904
422.8 K, 28111 kPa, Liquid | 0.07046
422.8 K, 28112 kPa, Liquid | 0.07051
422.82 K, 15379 kPa, Liquid | 0.06258
422.83 K, 6608 kPa, Liquid | 0.05508
422.83 K, 6614 kPa, Liquid | 0.05515
422.83 K, 28116 kPa, Liquid | 0.07034
422.84 K, 15382 kPa, Liquid | 0.06256
422.84 K, 28116 kPa, Liquid | 0.07035
422.86 K, 22725 kPa, Liquid | 0.06729
422.87 K, 5712 kPa, Liquid | 0.0541
422.87 K, 5716 kPa, Liquid | 0.05417
422.87 K, 22727 kPa, Liquid | 0.06729
422.89 K, 13389 kPa, Liquid | 0.06114
422.89 K, 13396 kPa, Liquid | 0.0611
422.92 K, 4948 kPa, Liquid | 0.05329
422.93 K, 4948 kPa, Liquid | 0.05326
422.93 K, 11677 kPa, Liquid | 0.05979
422.94 K, 11666 kPa, Liquid | 0.05974
422.96 K, 4303 kPa, Liquid | 0.05247
